# Measured values published in PMC5327470, “Discovery and Optimization of Novel 5-Indolyl-7-arylimidazo[1,2-a]pyridine-8-carbonitrile Derivatives as Potent Antitubulin Agents Targeting Colchicine-binding Site” (Scientific Reports, 2017).
# “Also recorded” adds a separate entry of the source.
# Experiments:
# [1] = tested on: HT-29 (human colon cancer); experiment: MTT antiproliferative assay, HT-29; type: cell-based; settings: Homo sapiens, HT-29; MTT, 72 h, mean ± SD; read-out: IC50 (μM) ±SD HT29
# Description: (§1) To evaluate the antiproliferative activity, all synthesized derivatives (5a–5v and 7a–7h) were investigated for their activity in vitro against a panel of cancer cell lines including HT-29 (human colon cancer), H460 (human lung cancer), A549 (human lung carcinoma), MKN-45 (human gastric cancer) and SMMC-7721 (human liver cancer) by MTT assay. CA-4 and Crolibulin were served as positive control, and the results expressed as half-maximal inhibitory concentration (IC50). IC50 values are the concentrations that cause 50% inhibition of cancer cell growth (μM). Data represent the mean values ± standard deviation (SD) of independent experiments performed in triplicate.
# (§2) Cell lines and culture conditions.The human colon carcinoma cell line HT-29, the human pulmonary carcinoma cell line A549, the human gastric carcinoma cell line MKN-45, the human breast cancer cell line MDA-MB-231 and human heptocarcinoma cellline SMMC-7721were cultured in RPMI-1640 mediumcontaining 10% FBS, 100 U/mL streptomycin and 100 U/mL penicillinat 37 °C in humidified atmosphere with 5% CO2. All of the cells were purchased from the American Type Culture Collection (ATCC, Manassas, VA).
# (§3) The antiproliferative activities in vitro of Crolibulin and all the target compounds were determined by an MTT assay. Briefly, cells were seeded into 96-well plates at a density of 1–3 × 10^4/well (depends on the cell growth rate). 24 h later, triplicate wells were treated with media and the agents. After 72 h ofincubation at 37 °C in 5% CO2, the drug containing medium wasremoved and replaced by 100 mL of fresh medium with 5 mg/mLMTT solution. After 4 h of incubation, the medium with MTT was removed, and […] of DMSO was added to each well. The plates were gently agitated until the purple formazan crystals were dissolved, and the OD490 was determinedusing a microplate reader (MK3, Thermo, Germany). The data were calculated and plotted as the percent viability compared to the control. The 50% inhibitory concentration (IC50) was defined as theconcentration that reduced the absorbance of the untreated wells by 50% of the vehicle in the MTT assay.
# H460 (human lung cancer) = experiment: MTT antiproliferative assay, H460; type: cell-based; settings: Homo sapiens, MTT, 72 h, mean ± SD
# Description: as §1, §3
# [2] = tested on: A549 (human lung carcinoma); experiment: MTT antiproliferative assay, A549; type: cell-based; settings: 72 h, mean ± SD
# Description: as §1, §2, §3
# [3] = tested on: MKN-45 (human gastric cancer); experiment: MTT antiproliferative assay, MKN-45; type: cell-based; settings: 72 h, mean ± SD, read-out: IC50 (μM) ±SD MKN45
# Description: as §1, §2, §3
# [4] = tested on: SMMC-7721 (human liver cancer); experiment: MTT antiproliferative assay, SMMC-7721; type: cell-based; settings: 72 h, mean ± SD
# Description: Data represent the mean values ± standard deviation (SD) of independent experiments performed in triplicate.
# All of the cells were purchased from the American Type Culture Collection (ATCC, Manassas, VA).
# as §3, with “After 72 h ofincubation at 37 °C in 5% CO2, the drug containing medium wasremoved and replaced by 100 mL of fresh medium with 5 mg/mLMTT solution.” left out, “control.” for “control. The 50% inhibitory concentration (IC50) was defined as theconcentration that reduced the absorbance of the untreated wells by 50% of the vehicle in the MTT assay.”
# [5] = tested on: human fetal hepatocyte line L02; experiment: MTT assay on normal cell line L02; type: cell-based; settings: non-cancer cell line
# Description: The drug candidate potency depends not only on its cytotoxicity in malignant cells, but also on its relative lack of toxicity toward normal cells.
# as §3
# [6] = tested on: HT-29, H460, A549, MKN-45 and SMMC-7721 cell lines; experiment: MTT antiproliferative assay, panel of five cancer cell lines; type: cell-based, human; settings: ratio of IC50 values
# Description: IC50 values are the concentrations that cause 50% inhibition of cancer cell growth (μM). Data represent the mean values ± standard deviation (SD) of independent experiments performed in triplicate.
# as §3
# HT-29 cells = experiment: Cell cycle phase distribution by flow cytometry; type: cell-based, human; settings: 24 h
# Description: The structural similarities between the target compounds (5a–5v and 7a–7h) with CA-4 and Crolibulin, as well as the promising cytotoxic activity led us to hypothesize that these compounds exert their antiproliferative properties through inhibition of tubulin dynamics, thus inducing mitotic arrest in cancer cells. […] Controls were treated with drug vehicle DMSO. […] And this effect is characteristic of antimitotic agents disrupting microtubule assembly.
# Data are expressed as the mean ± SEM.
# For flow cytometric analysis of DNA content, cells inexponential growth were treated with compound for 24 h[41]. The cells treated with compoundwere collected, washed twice with PBS, and then fixed with 75% alcohol overnight. Then, the cells were washed with PBS and resuspended in 100 μL of PBS, 200 mg/mL RNase wasadded for 30 min to eliminate the interference of RNA, and 20 mL/L propidium iodide (PI; Sigma) was added for 30 min.Then, the cells were washed, and the DNA content wasdetected by flow cytometer (BD Accuri C6).
# [7] = tested on: microtubules in HT-29 cells; experiment: Immunofluorescence staining of microtubule network; type: cell-based, human; settings: 12 h, anti-α-tubulin immunostaining
# Description: After incubation, cells were fixed, reacted with monoclonal anti-tubulin antibody at 4 °C overnight and then reacted with fluorescein isothiocyanate (FITC) conjugated secondary antibody, DAPI was used for nuclear counter-staining, the cellular microtubules were observed under fluorescence microscope (scale bar = 20 μm).
# The HT-29 cells were seeded at 1 × 10^4 per well on a 24 wellplate and grown for 24 h. […] Cells in the control group were treated with culture medium. The control and treated cells were fixed with 4% formaldehydein PBS for 30 min at −20 °C, then washed twice with PBS and permeabilized with 0.1% (v/v) Triton X-100 in PBS for 5 min. Then, the cells were blocked with 3% bovine serum albumin(BSA) in PBS for 30 min. The primary α-tubulin antibody wasdiluted (1:100) with 2% BSA in PBS and incubated overnight at 4 °C. The cells were washed with PBS to remove unbound primaryantibody and then cells were incubated with FITC-conjugated antimousesecondary antibody, diluted (1:100) with 2% BSA in PBS, for 2 h at 37 °C. The cells were washed with PBS to remove unbound secondary antibody, nucleus was stained with 4,6-diamino-2-phenolindoldihydrochloride (DAPI) and then, immunofluorescencewas detected using a fluorescence microscope (Olympus,Tokyo, Japan).
# tubulin, colchicine site = experiment: Colchicine competition (competitive tubulin-binding) assay; settings: 0, 1.6, 5 and 15 μM, 1 h at 37 °C, then 5 μM colchicine
# Description: Figure 6 Colchicine competition assay. […] The fluorescence was measured by Hitachi F-2500 spectrofluorometer.
# Then colchicine was added to a final concentration of 5 μM[43]. Fluorescence was determined using a Hitachi F-2500 spectrofluorometer (Tokyo, Japan) at excitation wavelengths of 365 nm and emission wavelengths of 435 nm. Blank values (buffer alone) as background were subtracted from all samples. […] Taxol, not binding in the colchicine-site of tubulin, was added as a negative control.
SMILES,IC50 [1],"IC50 (H460 (human lung cancer); NCI-H460, 72 h)",IC50 [2],IC50 [3],IC50 [4],effect on normal cell L02 [5],"fold increased potency over 5a (H), 5c (3-OMe) and 5d (4-OMe) [6]",melting point,"percent of cells in G1 phase (HT-29 cells; HT-29, 20 nM)","percent of cells in G1 phase (HT-29 cells; HT-29, 200 nM)","percent of cells in G2 (G2/M) phase (HT-29 cells; HT-29, 200 nM)","percent of cells in G1 phase (HT-29 cells; HT-29, 1000 nM)","percent of cells in G2 (G2/M) phase (HT-29 cells; HT-29, 1000 nM)","effect on microtubule network ([7]; HT-29, 32.5 nM)","effect on intrinsic fluorescence of colchicine-tubulin complex (tubulin, colchicine site)",IC50 (H460 (human lung cancer); NCI-H460),"effect on microtubule network ([7]; HT-29, 20 nM)"
"N#Cc1c(-c2ccccc2Cl)cc(-c2c[nH]c3ccccc23)n2ccnc12 [5f, 7-(2-chlorophenyl)-5-(1H-indol-3-yl)imidazo[1,2-a]pyridine-8-carbonitrile]",0.07 ± 0.004 µM,0.18 ± 0.08 µM,0.95 ± 0.07 µM,0.38 ± 0.06 µM,13.8 ± 2.23 µM,negligible effects,at least 1.7 fold,296.7 to 300.1 °C,,,,,,,,,
"N#Cc1c(-c2ccc(F)cc2Cl)cc(-c2c[nH]c3ccccc23)n2ccnc12 [5k, 7-(2-chloro-4-fluorophenyl)-5-(1H-indol-3-yl)imidazo[1,2-a]pyridine-8-carbonitrile]",0.02 ± 0.001 µM,0.05 ± 0.008 µM,0.57 ± 0.08 µM,0.14 ± 0.03 µM,,negligible effects; also recorded: minimal,,307.9 to 317.3 °C,62.84%,65.76%,14.21%,24.62%,64.07%,cellular microtubule depolymerization,decreased the intrinsic colchicine fluorescence in a dose-dependent manner,,
"COc1ccc(/C=C\c2cc(OC)c(OC)c(OC)c2)cc1O [CA-4, Combretastatin A-4, reference compound]",0.05 ± 0.01 µM,,0.43 ± 0.053 µM,0.11 ± 0.02 µM,1.92 ± 0.11 µM,,,,,,,,,,,0.08 ± 0.01 µM,cellular microtubule depolymerization
"CC(=O)O[C@H]1C(=O)[C@@]2(C)[C@H]([C@H](OC(=O)c3ccccc3)[C@]3(O)C[C@H](OC(=O)[C@H](O)[C@@H](NC(=O)c4ccccc4)c4ccccc4)C(C)=C1C3(C)C)[C@]1(OC(C)=O)CO[C@@H]1C[C@@H]2O [Taxol, reference compound]",,,,,,,,,,,,,,,scarcely effect,,
